From patent US20230391786A1, “cGAS INHIBITORS” (Eli Lilly and Company, priority 2022, published 2023)
Structures can show the parent of a compound that is named as a salt. Where two headings read alike, the source gives them in different places.

Key:
[1] = tested on: cGAS activity in THP1 cells (IFNb as marker); experiment: Cellular assay to measure cGAS activity (IFNb production in PMA-differentiated THP1 cells stimulated by RDG-Adenovirus-GFP); assay type: cell-based, human; conditions: PMA differentiated, RDG-Adenovirus-GFP 1000 MOI, IFNb AlphaLISA, overnight incubation, read-out: IC50 (μM), Cellular assay for Compounds 95-348
In short: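 PMA-differentiated THP1 cells were infected with RDG-Adenovirus-GFP at 1000 MOI for 4 h, then exposed overnight to test compounds. IFNb in the supernatant was quantified by AlphaLISA as a cGAS activity marker, and IC50 was fitted with a 4-parameter logistic equation.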

recombinant human cGAS = recombinant human cGAS (Homo sapiens (Human), UniProt Q8N884); experiment: In vitro inhibition assay of cGAS activity (cGAMP production, RapidFire mass spectrometry); assay type: biochemical; conditions: 10 nM recombinant human cGAS, 60 nM 75-bp dsDNA, ATP, GTP, room temperature 3 hours, read-out: IC50 (μM), In vitro inhibition assay for Compounds 95-348
In short: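 Full-length His6-tagged human cGAS (10 nM, E. coli-expressed) was incubated 3 h at room temperature with 60 nM 75-bp dsDNA, ATP, 50 μM GTP and compound at pH 7.5 with 5 mM MgCl2. cGAMP formation was measured by RapidFire mass spectrometry, and IC50 was taken from a 4-parameter logistic fit.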

[2] = Homo sapiens, THP-1, THP1 cells

Chain of recombinant human cGAS (Q8N884 whole entry): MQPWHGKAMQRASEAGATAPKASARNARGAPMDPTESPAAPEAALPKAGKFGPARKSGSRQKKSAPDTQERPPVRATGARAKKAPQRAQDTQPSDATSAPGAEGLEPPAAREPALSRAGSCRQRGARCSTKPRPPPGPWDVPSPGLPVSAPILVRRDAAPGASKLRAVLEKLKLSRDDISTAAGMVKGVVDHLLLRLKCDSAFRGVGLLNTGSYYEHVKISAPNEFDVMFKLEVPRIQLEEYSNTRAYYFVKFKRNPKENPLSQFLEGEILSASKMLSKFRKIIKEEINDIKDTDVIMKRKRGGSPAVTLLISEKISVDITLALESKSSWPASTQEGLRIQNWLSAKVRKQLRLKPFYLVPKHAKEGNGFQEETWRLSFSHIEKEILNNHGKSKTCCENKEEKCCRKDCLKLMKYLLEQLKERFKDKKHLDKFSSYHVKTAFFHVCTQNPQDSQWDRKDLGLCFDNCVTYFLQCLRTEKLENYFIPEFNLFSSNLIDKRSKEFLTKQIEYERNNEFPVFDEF

IC50 ([1]; THP1 cells) | IC50 (recombinant human cGAS) | IC50 [1, 2] | Compound
3.62 µM | 0.0772 µM | – | OCC(O)CNc1cc(Cl)c(Cl)c2[nH]cc(-c3cn[nH]c3)c12 (single isomer, unassigned) [Example 262, 3-[[6,7-Dichloro-3-(1H-pyrazol-4-yl)-1H-indol-4-yl]amino]propane-1,2-diol]
– | 0.0379 µM | 1.29 µM | OCC(CO)CNc1cc(Cl)c(Cl)c2[nH]cc(-c3cn[nH]c3)c12 [Example 192, 2-[[[6,7-Dichloro-3-(1H-pyrazol-4-yl)-1H-indol-4-yl]amino]methyl]propane-1,3-diol]
– | 0.0693 µM | 2.02 µM | Cn1cc(-n2cc(-c3cn[nH]c3)c3ccc(Cl)cc32)nn1 [Example 230, 6-Chloro-1-(1-methyltriazol-4-yl)-3-(1H-pyrazol-4-yl)indole]
– | 0.0284 µM | 4.01 µM | CN(C)C(=O)CCC(=O)N1CCn2c(c(-c3cn[nH]c3)c3c(NC(=O)C(F)F)cc(Cl)c(Cl)c32)C1 [Example 275, 4-[6,7-Dichloro-9-[(2,2-difluoroacetyl)amino]-10-(1H-pyrazol-4-yl)-3,4-dihydro-1H-pyrazino[1,2-a]indol-2-yl]-N,N-dimethyl-4-oxo-butanamide]
– | 0.052 µM | 1.54 µM | CCNc1cc(Cl)c(Cl)c2c1c(-c1cn[nH]c1)c1n2CCN(C(=O)CO)C1 [Example 148, 1-(6,7-Dichloro-9-(ethylamino)-10-(1H-pyrazol-4-yl)-3,4-dihydropyrazino[1,2-a]indol-2(1H)-yl)-2-hydroxyethan-1-one]
– | 0.0704 µM | 2.73 µM | O=C(NCc1[nH]c2c(Cl)c(Cl)ccc2c1-c1cn[nH]c1)C1COC1 [Example 224, N-[[6,7-Dichloro-3-(1H-pyrazol-4-yl)-1H-indol-2-yl]methyl]oxetane-3-carboxamide]
– | 0.0291 µM | > 10 µM | CN(C)C(=O)COCC(=O)N1CCn2c(c(-c3cn[nH]c3)c3ccc(Cl)c(Cl)c32)C1 [Example 301, 2-(2-(6,7-Dichloro-10-(1H-pyrazol-4-yl)-3,4-dihydropyrazino[1,2-a]indol-2(1H)-yl)-2-oxoethoxy)-N,N-dimethylacetamide]
– | 0.0452 µM | 2.34 µM | OCC(O)CNc1cc(Cl)c(Cl)c2[nH]cc(-c3cn[nH]c3)c12 (single isomer, unassigned) [Example 261, 3-[[6,7-Dichloro-3-(1H-pyrazol-4-yl)-1H-indol-4-yl]amino]propane-1,2-diol]
– | 0.0757 µM | > 10 µM | O=C(O)[C@@H]1CCCN1C(=O)c1[nH]c2c(Cl)c(Cl)ccc2c1-c1cn[nH]c1 [Example 258, (2 S)-1-[6,7-Dichloro-3-(1H-pyrazol-4-yl)-1H-indole-2-carbonyl]pyrrolidine-2-carb oxylic acid]
– | 0.0462 µM | 4.99 µM | OCCn1cc(-n2cc(-c3cn[nH]c3)c3ccc(Cl)c(Cl)c32)nn1 [Example 138, 2-[4-[6,7-Dichloro-3-(1H-pyrazol-4-yl)indol-1-yl]triazol-1-yl]ethanol]
– | 0.0794 µM | 2.12 µM | CNCC(=O)NCc1[nH]c2c(Cl)c(Cl)ccc2c1-c1cn[nH]c1 [Example 217, N-[[6,7-Dichloro-3-(1H-pyrazol-4-yl)-1H-indol-2-yl]methyl]-2-(methylamino)acetamide formic acid salt]
2.73 µM | 0.0146 µM | – | O=C(CO)NC1Cc2c(-c3cn[nH]c3)c3ccc(Cl)c(Cl)c3n2C1 (single isomer, unassigned) [Example 247, N-(5,6-Dichloro-9-(1H-pyrazol-4-yl)-2,3-dihydro-1H-pyrrolo[1,2-a]indol-2-yl)-2-hydroxyacetamide]
– | 0.0234 µM | > 10 µM | O=C(CC1COCCOC1)N1CCn2c(c(-c3cn[nH]c3)c3ccc(Cl)c(Cl)c32)C1 [Example 298, 1-(6,7-Dichloro-10-(1H-pyrazol-4-yl)-3,4-dihydropyrazino[1,2-a]indol-2(1H)-yl)-2-(1,4-dioxepan-6-yl)ethan-1-one]
– | 0.029 µM | 0.216 µM | Cc1nnc(-c2[nH]c3c(Cl)c(Cl)ccc3c2-c2cn[nH]c2)o1 [Example 127, 2-(6,7-Dichloro-3-(1H-pyrazol-4-yl)-1H-indol-2-yl)-5-methyl-1,3,4-oxadiazole]
– | 0.00433 µM | 1.47 µM | OCCCNc1cc(Cl)c(Cl)c2[nH]cc(-c3cn[nH]c3)c12 [Example 144, 3-[[6,7-Dichloro-3-(1H-pyrazol-4-yl)-1H-indol-4-yl]amino]propan-1-ol]
3.97 µM | 0.0628 µM | – | O=C(CO)NC1CCn2c1c(-c1cn[nH]c1)c1ccc(Cl)c(Cl)c12 (single isomer, unassigned) [Example 345, N-(5,6-Dichloro-9-(1H-pyrazol-4-yl)-2,3-dihydro-1H-pyrrolo[1,2-a]indol-1-yl)-2-hydroxyacetamide]
– | 0.0104 µM | 0.326 µM | OCC(F)CNc1cc(Cl)c(Cl)c2[nH]cc(-c3cn[nH]c3)c12 (centres unmarked) [Example 187, 3-[[6,7-Dichloro-3-(1H-pyrazol-4-yl)-1H-indol-4-yl]amino]-2-fluoro-propan-1-ol]
– | 0.0365 µM | 2.17 µM | O[C@H]1CC[C@@H](Nc2cc(Cl)c(Cl)c3[nH]cc(-c4cn[nH]c4)c23)C1 (single isomer, unassigned; isomer 2) [Example 210, Cis-3-[[6,7-Dichloro-3-(1H-pyrazol-4-yl)-1H-indol-4-yl]amino]cyclopentanol, isomer 2]
– | 0.0251 µM | > 10 µM | NC(=O)CCC(=O)N1CCn2c(c(-c3cn[nH]c3)c3ccc(Cl)c(Cl)c32)C1 [Example 297, 4-(6,7-Dichloro-10-(1H-pyrazol-4-yl)-3,4-dihydropyrazino[1,2-a]indol-2(1H)-yl)-4-oxobutanamide]
– | 0.0413 µM | 3.62 µM | O=C(Cc1[nH]c2c(Cl)c(Cl)ccc2c1-c1cn[nH]c1)NCc1cc[nH]n1 [Example 178, 2-[6,7-Dichloro-3-(1H-pyrazol-4-yl)-1H-indol-2-yl]-N-(1H-pyrazol-3-ylmethyl) acetamide]
– | 0.0686 µM | 0.885 µM | NCCn1cc(-n2cc(-c3cn[nH]c3)c3ccc(Cl)c(Cl)c32)nn1 [Example 214, 2-[4-[6,7-Dichloro-3-(1H-pyrazol-4-yl)indol-1-yl]triazol-1-yl]ethanamine hydrochloride]
– | 0.0763 µM | 8.53 µM | Clc1ccc2c(-c3cn[nH]c3)c3n(c2c1Cl)CC(Nc1ncccn1)CC3 (centres unmarked) [Example 191, 3,4-Dichloro-10-(1H-pyrazol-4-yl)-N-pyrimidin-2-yl-6,7,8,9-tetrahydropyrido[1,2-a]indol-7-amine]
– | 0.0561 µM | 2.14 µM | N#CCOc1cc(Cl)c(Cl)c2c1c(-c1cn[nH]c1)c1n2CCN(C(=O)c2nccnc2C(=O)N2CCCCC2)C1 [Example 295, 2-((6,7-Dichloro-2-(3-(piperidine-1-carbonyl)pyrazine-2-carbonyl)-10-(1H-pyrazol-4-yl)-1,2,3,4-tetrahydropyrazino[1,2-a]indol-9-yl)oxy)acetonitrile]
– | 0.00789 µM | 0.426 µM | CN1CCn2c(c(-c3cn[nH]c3)c3c(OCCCO)cc(Cl)c(Cl)c32)C1=O [Example 339, 6,7-Dichloro-9-(3-hydroxypropoxy)-2-methyl-10-(1H-pyrazol-4-yl)-3,4-dihydropyrazino[1,2-a]indol-1(2H)-one]
– | 0.0301 µM | 0.556 µM | O[C@@H]1C[C@H](Oc2cc(Cl)c(Cl)c3[nH]cc(-c4cn[nH]c4)c23)[C@@H](O)C1 (racemic) [Example 220, 4-[[6,7-Dichloro-3-(1H-pyrazol-4-yl)-1H-indol-4-yl]oxy]cyclopentane-1,3-diol (racemic mixture)]
– | 0.0416 µM | > 10 µM | CN(C)C(=O)NCC(=O)N1CCn2c(c(-c3cn[nH]c3)c3ccc(Cl)c(Cl)c32)C1 [Example 182, 3-[2-[6,7-Dichloro-10-(1H-pyrazol-4-yl)-3,4-dihydro-1H-pyrazino[1,2-a]indol-2-yl]-2-oxo-ethyl]-1,1-dimethyl-urea]
– | 0.0276 µM | 0.8 µM | COc1cc2c(-c3cn[nH]c3)cn(-c3cccnn3)c2cc1Cl [Example 341, 6-Chloro-5-methoxy-3-(1H-pyrazol-4-yl)-1-(pyridazin-3-yl)-1H-indole]
– | 0.0361 µM | 2.19 µM | O=C(NC1CCc2c(-c3cn[nH]c3)c3ccc(Cl)c(Cl)c3n2C1)C1(O)CCOCC1 (centres unmarked) [Example 190, N-[3,4-Dichloro-10-(1H-pyrazol-4-yl)-6,7,8,9-tetrahydropyrido[1,2-a]indol-7-yl]-4-hydroxy-tetrahydropyran-4-carboxamide]
– | 0.0691 µM | > 10 µM | FC(F)(F)c1nnc(-c2[nH]c3c(Cl)c(Cl)ccc3c2-c2cn[nH]c2)o1 [Example 128, 2-(6,7-Dichloro-3-(1H-pyrazol-4-yl)-1H-indol-2-yl)-5-(trifluoromethyl)-1,3,4-oxadiazole]
– | 0.0103 µM | 0.426 µM | CC(CO)COc1cc(Cl)c(Cl)c2[nH]cc(-c3cn[nH]c3)c12 (centres unmarked) [Example 125, 3-((6,7-Dichloro-3-(1H-pyrazol-4-yl)-1H-indol-4-yl)oxy)-2-methylpropan-1-ol]

Compound | IC50 ([1]; THP1 cells) | IC50 (recombinant human cGAS) | IC50 [1, 2]
CCNc1cc(Cl)c(Cl)c2c1c(-c1cn[nH]c1)c1n2CCN(C)C1=O [Example 149, 6,7-Dichloro-9-(ethylamino)-2-methyl-10-(1H-pyrazol-4-yl)-3,4-dihydropyrazino[1,2-a]indol-1-one hydrochloride] | – | 0.0442 µM | 6.05 µM
